Data reported in patent US12178842B2, “PCSK9 antagonist compounds” (MERCK SHARP & DOHME LLC, priority 2019, dated 2024).

Assays:
Type in all cases: binding
[1] = molecular target: T1, PCSK9 (Homo sapiens, UniProt Q8NBP7); experiment: PCSK9 Alexa FRET Plus TR-FRET assay
T1 construct: biotin (biotinylated); purchased
Protocol: A separate solution containing 1920 nM of the AlexaFluor tagged cyclic peptide is made in the same buffer system. […] The reaction is incubated at room temperature for at least two hours prior to fluorescence measurements using an Envision Multilabel Reader. IC50 values are determined by fitting data to a sigmoidal dose-response curve using nonlinear regression. Ki is then calculated from the Ic50 and the KD of AF cyclic peptide. Counts (B-counts) of the europium-labeled PCSK9 are followed to observe if compounds are adversely affecting PCSK9. A fall off of the B-counts is likely indicates a false positive of inhibition. Data from this procedure is reported as “P=‘numerical value’ (nanomolar)”

[2] = molecular target: T1, PCSK9; experiment: PCSK9 Alexa FRET Standard TR-FRET assay; conditions: Ki calculated from IC50 and KD of AF cyclic peptide Reagent A; 0.5 nM PCSK9, 20 nM AF cyclic peptide; read-out: Alexa FRET Stdt TR-FRET
Protocol: A solution containing 1 nM biotinylated PCSK9+2.5 nM Lance Streptavidin Europium (Strep-Eu) is made in 50 mM HEPES pH 7.4, 0.15 M NaCl, 5 mM CaCl2, 0.01% BSA, and 0.01% Surfactant P20. A separate solution containing 40 nM of the AlexaFluor tagged cyclic peptide is made in the same buffer system. An Echo is used to transfer 0.750 ul of compound to an assay plate followed by the addition of 15 ul of PCSK9+Stept-Eu and 15 ul of AF peptide. The final assay volume is 30.750 ul containing 0.5 nM PCSK9, 1.25 nM Strep-Eu, and 20 nM AF cyclic peptide. The reaction is incubated at room temperature for at least two hours prior to fluorescence measurements using an Envision Multilabel Reader. IC50 values are determined by fitting data to a sigmoidal dose-response curve using nonlinear regression. Ki is then calculated from the Ic50 and the KD of AF cyclic peptide. Counts (B-counts) of the europium-labeled PCSK9 are followed to observe if compounds are adversely PCSK9. A fall off of the B-counts likely indicates a false positive of inhibition. Data from this procedure is reported as “A=‘numerical value’ (nanomolar)”

[3] = molecular target: T1, PCSK9; experiment: PCSK9 Alexa FRET Ultra TR-FRET assay
Protocol: A separate solution containing 1920 nM of the AlexaFluor tagged cyclic peptide is made in the same buffer system. […] The reaction is incubated at room temperature for at least two hours prior to fluorescence measurements using an Envision Multilabel Reader. IC50 values are determined by fitting data to a sigmoidal dose-response curve using nonlinear regression. Ki is then calculated from the Ic50 and the KD of AF cyclic peptide. Counts (B-counts) of the europium-labeled PCSK9 are followed to observe if compounds are adversely affecting PCSK9. A fall off of the B-counts is likely indicates a false positive of inhibition. Data from this procedure is reported as “Ki Ultra=‘numerical value’ (data reported is nanomolar)”

[4] = Ki calculated from IC50 and KD of AF cyclic peptide Reagent B, 0.5 nM PCSK9, 960 nM AF cyclic peptide, read-out: Alexa FRET Plus TR-FRET
[5] = Ki Ultra, calculated from IC50 and KD of AF cyclic peptide, 0.5 nM PCSK9, 960 nM AF cyclic peptide, read-out: Alexa FRET Ultra TR-FRET

T1 sequence (Q8NBP7 153-692): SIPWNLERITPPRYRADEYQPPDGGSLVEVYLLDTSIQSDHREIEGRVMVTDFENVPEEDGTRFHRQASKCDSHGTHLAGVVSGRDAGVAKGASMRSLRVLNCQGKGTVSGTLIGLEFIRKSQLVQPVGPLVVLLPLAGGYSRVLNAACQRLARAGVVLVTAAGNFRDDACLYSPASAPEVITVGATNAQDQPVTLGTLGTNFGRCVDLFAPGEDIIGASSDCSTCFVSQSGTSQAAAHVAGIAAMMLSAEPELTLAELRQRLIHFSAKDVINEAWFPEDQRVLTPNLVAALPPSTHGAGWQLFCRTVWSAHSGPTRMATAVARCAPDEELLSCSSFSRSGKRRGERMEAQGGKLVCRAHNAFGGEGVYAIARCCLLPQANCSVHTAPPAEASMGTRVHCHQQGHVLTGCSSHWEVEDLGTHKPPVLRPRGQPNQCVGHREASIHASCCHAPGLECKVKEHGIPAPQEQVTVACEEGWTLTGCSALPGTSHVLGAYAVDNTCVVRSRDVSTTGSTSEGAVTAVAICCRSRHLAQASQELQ

Ki [1, 4] | Ki [2] | Ki [3, 5] | SMILES | Ki [1] | Ki [3]
< 6 pM | < 1260 pM | 45 pM | COc1ccc(C[C@@H]2NC(=O)[C@H]([C@@H](C)O)NC(=O)[C@@H]3[C@@H]4CCN3C(=O)[C@@H]3Cc5cn(c6ccc(F)cc56)CCCCCCN(Cc5ccc(cc5)CCNC(=O)[C@]5(C)CCCN5C2=O)C(=O)CCC(=O)N[C@@H](CNC(=O)COCCOCCNC(=O)COCCOCCNC(=O)CC[C@H](NC(=O)CCCCCCCCCCCCCCCCC(=O)O)C(=O)O)C(=O)N[C@H](CNC(=O)CCOCCOCC[N+](C)(C)C)C(=O)N[C@@H](Cc2cccc(c2)CNC(=O)CO4)C(=O)N3)cc1 [Ex-63] |  | 
< 6 pM | < 1260 pM | 10 pM | COc1ccc(C[C@@H]2NC(=O)[C@H]([C@@H](C)O)NC(=O)[C@@H]3[C@@H]4CCN3C(=O)[C@@H]3Cc5cn(c6ccc(F)cc56)CCCCCCN(Cc5ccc(cc5)CCNC(=O)[C@]5(C)CCCN5C2=O)C(=O)CCC(=O)N[C@@H](C)C(=O)N[C@H](CNC(=O)COCCOCCNC(=O)COCCOCCNC(=O)CC[C@H](NC(=O)CC[C@H](NC(=O)CCCCCCCCCCCCCCC(=O)O)C(=O)O)C(=O)O)C(=O)N[C@@H](Cc2cccc(c2)CNC(=O)CO4)C(=O)N3)cc1 [Ex-42] |  | 
< 6 pM | < 1260 pM | 4 pM | COc1ccc(C[C@@H]2NC(=O)[C@H]([C@@H](C)O)NC(=O)[C@@H]3[C@@H]4CCN3C(=O)[C@@H]3Cc5cn(c6ccc(F)cc56)CCCCCCN(Cc5ccc(cc5)CCNC(=O)[C@]5(C)CCCN5C2=O)C(=O)CCC(=O)N[C@@H](C)C(=O)N[C@H](CNC(=O)COCCOCCNC(=O)COCCOCCNC(=O)CCCCC[N+](C)(C)CCNC(=O)CC[C@H](NC(=O)CCCCCCCCCCCCCCCCC(=O)O)C(=O)O)C(=O)N[C@@H](Cc2cccc(c2)CNC(=O)CO4)C(=O)N3)cc1 [compound 30] |  | 
< 6 pM | < 1260 pM | 5 pM | COc1ccc(C[C@@H]2NC(=O)[C@H]([C@@H](C)O)NC(=O)[C@@H]3[C@@H]4CCN3C(=O)[C@@H]3Cc5cn(c6ccc(F)cc56)CCCCCCN(Cc5ccc(cc5)CCNC(=O)[C@]5(C)CCCN5C2=O)C(=O)CCC(=O)N[C@@H](C)C(=O)N[C@H](CNC(=O)COCCOCCNC(=O)COCCOCCNC(=O)CC[C@H](NC(=O)CCCCCCCCCCCCCCC(=O)O)C(=O)O)C(=O)N[C@@H](Cc2cccc(c2)CNC(=O)CO4)C(=O)N3)cc1 [Ex-41] |  | 
14 pM | < 1260 pM | 7 pM | COC(=O)CCCCCCCCCCCCCCCCC(=O)N[C@@H](CCC(=O)NCCOCCOCC(=O)NCCOCCOCC(=O)NCC[N+](C)(C)CCCCCC(=O)NC[C@H]1NC(=O)[C@H](C)NC(=O)CCC(=O)N2CCCCCCn3cc(c4cc(F)ccc43)C[C@@H]3NC(=O)[C@H](Cc4cccc(c4)CNC(=O)CO[C@H]4CCN(C3=O)[C@@H]4C(=O)N[C@@H]([C@@H](C)O)C(=O)N[C@@H](Cc3ccc(OC)cc3)C(=O)N3CCC[C@@]3(C)C(=O)NCCc3ccc(cc3)C2)NC1=O)C(=O)OC [Ex-12] |  | 
12 pM | < 1260 pM | 28 pM | COc1ccc(C[C@@H]2NC(=O)[C@H]([C@@H](C)O)NC(=O)[C@@H]3[C@@H]4CCN3C(=O)[C@@H]3Cc5cn(c6ccc(F)cc56)CCCCCCN(Cc5ccc(cc5)CCNC(=O)[C@]5(C)CCCN5C2=O)C(=O)CCC(=O)N[C@@H](CNC(=O)CCOCCOCC[N+](C)(C)CCNC(=O)COCCOCCNC(=O)COCCOCCNC(=O)CC[C@H](NC(=O)CCCCCCCCCCCCCCC(=O)O)C(=O)O)C(=O)N[C@H](CNC(=O)CCOCCOCC[N+](C)(C)C)C(=O)N[C@@H](Cc2cccc(c2)CNC(=O)CO4)C(=O)N3)cc1 [Ex-64] |  | 

The remaining lines, values behind:

SMILES | Ki [1, 4] | Ki [2] | Ki [3, 5] | Ki [1] | Ki [3]
COc1ccc(C[C@@H]2NC(=O)[C@H]([C@@H](C)O)NC(=O)[C@@H]3[C@@H]4CCN3C(=O)[C@@H]3Cc5cn(c6ccc(F)cc56)CCCCCCN(Cc5ccc(cc5)CCNC(=O)[C@]5(C)CCCN5C2=O)C(=O)CCC(=O)N[C@@H](C)C(=O)N[C@H](CNC(=O)CCOCCOCC[N+](C)(C)CCNC(=O)COCCOCCNC(=O)COCCOCCNC(=O)CC[C@H](NC(=O)CCCCCCCCCCCCCCC(=O)O)C(=O)O)C(=O)N[C@@H](Cc2cccc(c2)CNC(=O)CO4)C(=O)N3)cc1 [Example 4] |  | < 1260 pM |  | < 6 pM | 3 pM
COc1ccc(C[C@@H]2NC(=O)[C@H]([C@@H](C)O)NC(=O)[C@@H]3[C@@H]4CCN3C(=O)[C@@H]3Cc5cn(c6ccc(F)cc56)CCCCCCN(Cc5ccc(cc5)CCNC(=O)[C@]5(C)CCCN5C2=O)C(=O)CCC(=O)N[C@@H](C)C(=O)N[C@H](CNC(=O)CCOCCOCC[N+](C)(C)CCNC(=O)COCCOCCNC(=O)COCCOCCNC(=O)CC(CC(=O)O)NC(=O)CC[C@H](NC(=O)CCCCCCCCCCCCCCCCC(=O)O)C(=O)O)C(=O)N[C@@H](Cc2cccc(c2)CNC(=O)CO4)C(=O)N3)cc1 (stereo partly drawn) [Ex-16] |  | < 1260 pM |  | 14 pM | 8 pM
COc1ccc(C[C@@H]2NC(=O)[C@H]([C@@H](C)O)NC(=O)[C@@H]3[C@@H]4CCN3C(=O)[C@@H]3Cc5cn(c6ccc(F)cc56)CCCCCCN(Cc5ccc(cc5)CCNC(=O)[C@]5(C)CCCN5C2=O)C(=O)CCC(=O)N[C@@H](C)C(=O)N[C@H](CNC(=O)CCOCCOCC[N+](C)(C)CCNS(=O)(=O)CCCNS(=O)(=O)CCCNC(=O)CC[C@H](NC(=O)CCCCCCCCCCCCCCCCC(=O)O)C(=O)O)C(=O)N[C@@H](Cc2cccc(c2)CNC(=O)CO4)C(=O)N3)cc1 [Ex-68] | < 6 pM | < 1260 pM | 5 pM |  | 
COc1ccc(C[C@@H]2NC(=O)[C@H]([C@@H](C)O)NC(=O)[C@@H]3[C@@H]4CCN3C(=O)[C@@H]3Cc5cn(c6ccc(F)cc56)CCCCCCN(Cc5ccc(cc5)CCNC(=O)[C@]5(C)CCCN5C2=O)C(=O)CCC(=O)N[C@@H](C)C(=O)N[C@H](CNC(=O)CCC[N+](C)(C)CCNC(=O)COCCOCCNC(=O)CC[C@H](NC(=O)CC[C@H](NC(=O)CCCCCCCCCCCCCCCCC(=O)O)C(=O)O)C(=O)O)C(=O)N[C@@H](Cc2cccc(c2)CNC(=O)CO4)C(=O)N3)cc1 [Ex-14] |  | < 1260 pM |  | < 6 pM | 5 pM
COc1ccc(C[C@@H]2NC(=O)[C@H]([C@@H](C)O)NC(=O)[C@@H]3[C@@H]4CCN3C(=O)[C@@H]3Cc5cn(c6ccc(F)cc56)CCCCCN(Cc5ccc(cc5)CCNC(=O)[C@]5(C)CCCN5C2=O)C(=O)CCC(=O)N[C@@H](C)C(=O)N[C@H](CNC(=O)CCOCCOCC[N+](C)(C)CCNC(=O)COCCOCCNC(=O)COCCOCCNC(=O)CC[C@H](NC(=O)CC[C@H](NC(=O)CCCCCCCCCCCCCCCCC(=O)O)C(=O)O)C(=O)O)C(=O)N[C@@H](Cc2cccc(c2)CNC(=O)CO4)C(=O)N3)cc1 [Ex-51] |  | < 1260 pM |  | 7 pM | 5 pM
COc1ccc(C[C@@H]2NC(=O)[C@H]([C@@H](C)O)NC(=O)[C@@H]3[C@@H]4CCN3C(=O)[C@@H]3Cc5cn(c6ccc(F)cc56)CCCCCCN(Cc5ccc(cc5)CCNC(=O)[C@]5(C)CCCN5C2=O)C(=O)CCC(=O)N[C@@H](CNC(=O)COCCOCC[N+](C)(C)CCNC(=O)COCCOCCNC(=O)COCCOCCNC(=O)CC[C@H](NC(=O)CCCCCCCCOCCCCCCCCC(=O)O)C(=O)O)C(=O)N[C@H](C)C(=O)N[C@@H](Cc2cccc(c2)CNC(=O)CO4)C(=O)N3)cc1 [Ex-62] |  | < 1260 pM |  | < 6 pM | 38 pM
COc1ccc(C[C@@H]2NC(=O)[C@H]([C@@H](C)O)NC(=O)[C@@H]3[C@@H]4CCN3C(=O)[C@@H]3Cc5cn(c6ccc(F)cc56)CCCCCCN(Cc5ccc(cc5)CCNC(=O)[C@]5(C)CCCN5C2=O)C(=O)CCC(=O)N[C@@H](C)C(=O)N[C@H](CNC(=O)CCOCCOCC[N+](C)(C)CCNC(=O)Cc2c(C)n(C(=O)c5ccc(Cl)cc5)c5ccc(OC)cc25)C(=O)N[C@@H](Cc2cccc(c2)CNC(=O)CO4)C(=O)N3)cc1 [Ex-52] | < 6 pM | < 1260 pM | 1 pM |  | 
